pEC50: −log10 of the molar value. ≈ marks a conversion by molar mass, not a printed value.
What was measured:
[1] = system: Dirofilaria immitis microfilariae; assay: In Vitro Assay 2: Dirofilaria immitis microfilariae (DIROIM L1) motility; type: cell-based; conditions: 72 h, read-out: EC50 ppm
C. elegans Slo-1a = C. elegans Slo-1a (Caenorhabditis elegans, UniProt Q95V25)
Chain of C. elegans Slo-1a (Q95V25 whole entry): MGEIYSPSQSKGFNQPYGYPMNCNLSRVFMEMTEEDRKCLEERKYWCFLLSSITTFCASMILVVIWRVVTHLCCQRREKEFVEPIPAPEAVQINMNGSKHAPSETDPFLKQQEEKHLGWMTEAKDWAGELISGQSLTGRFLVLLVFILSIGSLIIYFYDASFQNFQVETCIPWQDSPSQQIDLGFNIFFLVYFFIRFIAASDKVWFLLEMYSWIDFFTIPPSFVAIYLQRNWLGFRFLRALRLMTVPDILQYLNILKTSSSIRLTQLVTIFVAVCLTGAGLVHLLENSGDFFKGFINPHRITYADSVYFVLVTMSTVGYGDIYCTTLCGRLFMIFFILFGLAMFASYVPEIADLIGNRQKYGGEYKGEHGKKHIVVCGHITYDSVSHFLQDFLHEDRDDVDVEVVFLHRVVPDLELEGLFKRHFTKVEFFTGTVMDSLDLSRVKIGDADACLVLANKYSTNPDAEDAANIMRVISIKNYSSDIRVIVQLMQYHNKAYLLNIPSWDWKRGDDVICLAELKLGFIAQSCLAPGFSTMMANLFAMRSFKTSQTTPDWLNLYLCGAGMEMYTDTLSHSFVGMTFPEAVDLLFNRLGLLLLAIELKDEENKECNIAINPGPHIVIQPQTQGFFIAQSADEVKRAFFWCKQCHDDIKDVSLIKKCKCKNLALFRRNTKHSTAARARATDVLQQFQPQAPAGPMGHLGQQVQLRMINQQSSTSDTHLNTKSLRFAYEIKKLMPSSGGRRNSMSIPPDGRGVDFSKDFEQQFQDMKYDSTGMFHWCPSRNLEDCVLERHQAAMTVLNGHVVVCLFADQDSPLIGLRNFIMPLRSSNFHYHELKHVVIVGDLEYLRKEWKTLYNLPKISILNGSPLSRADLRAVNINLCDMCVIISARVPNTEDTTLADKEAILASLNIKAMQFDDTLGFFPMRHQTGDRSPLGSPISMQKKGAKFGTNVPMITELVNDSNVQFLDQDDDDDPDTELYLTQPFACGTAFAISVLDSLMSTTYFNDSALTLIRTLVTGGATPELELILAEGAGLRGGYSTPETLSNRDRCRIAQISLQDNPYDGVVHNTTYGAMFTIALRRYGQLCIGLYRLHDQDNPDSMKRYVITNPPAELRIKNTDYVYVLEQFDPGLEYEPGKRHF
Protocol: Cells were cultured at 37° C. and 5% CO2 in MEMalpha with Gutamax I (Invitrogen, Nr.: 32571), supplemented with 10% (v/v) heat inactivated fetal bovine serum (Invitrogen, Nr.: 10500), G418 (1 mg/ml, Invitrogen, Nr.: 10131). Cells were detached using Accutase (Sigma, Nr.: A6964).
Membrane Potential Measurements
Laboratory compound testing was performed on 384-well microtiter plates (MTPs, Greiner, Nr.: 781092). 8000 cells/well were plated onto 384-well MTPs and cultured for 20 to 24 hours at 37° C. and 5% CO2. After removal of the cell culture medium, the cells were washed once with tyrode (150 mM NaCl, 0.3 mM KCl, 2 mM CaCl2, 1 mM MgCl2, 0.8 mM NaH2PO4, 5 mM Glucose, 28 mM Hepes, pH 7.4) and then loaded with the voltage sensitive dye of the Membrane Potential Assay Kit diluted in tyrode for 1 h at room temperature.
After starting the measurement of fluorescence using a FLIPR Tetra (Molecular Devices, Exc. 510-545 nm, Emm. 565-625 nm), test compounds were added followed by the addition of KCl tyrode (final assay concentration: 70 mM KCl, 2 mM CaCl2, 1 mM MgCl2, 0.8 mM NaH2PO4, 5 mM Glucose, 28 mM Hepes, pH 7.4, including the voltage sensitive dye). The measurement was completed after 7 minutes.

Structure (SMILES) | EC50 [1] | pEC50 (C. elegans Slo-1a)
CC(C)c1c(C(=O)N[C@H]2CCOc3ccccc32)sc2c(-c3ccc(F)c(F)c3)cccc12 [Example Compound S1-4, 7-(3,4-Difluorophenyl)-N-[(4S)-3,4-dihydro-2H-chromen-4-yl]-3-isopropyl-1-benzothiophene-2-carboxamide] | 0.77 µg/mL (≈ 1.66 µM) | 7.30
CN(C)c1c(C(=O)N[C@H]2CCOc3ccccc32)cnc2c1cnn2-c1c(F)cccc1F [Example Compound S4-5, 1-(2,6-Difluorophenyl)-N-[(4S)-3,4-dihydro-2H-chromen-4-yl]-4-(dimethylamino)-1H-pyrazolo [3,4-b]pyridine-5-carboxamide] | > 2 µg/mL | 6.40
Cn1c(C(=O)N[C@H]2CCOc3ccccc32)nc2c(-c3cccc(Cl)c3Cl)ccnc21 [Example Compound S2-1, 7-(2,3-Dichlorophenyl)-N-[(4S)-3,4-dihydro-2H-chromen-4-yl]-3-methyl-3H-imidazo[4,5-b]pyridine-2-carboxamide] | 0.63 µg/mL (≈ 1.39 µM) | 7.50
CC(C)n1c(C(=O)N[C@H]2CCOc3ccccc32)cc2c(-c3cc(Cl)nc(Cl)c3)cccc21 [Example Compound S2-3, 4-(2,6-Dichloropyridin-4-yl)-N-[(4S)-3,4-dihydro-2H-chromen-4-yl]-1-(propan-2-yl)-1H-indole-2-carboxamide] | > 2 µg/mL | 7.00
O=C(N[C@H]1CCc2ccccc21)c1ccc2nc(-c3cccc(C(F)(F)F)c3Cl)cnc2c1 [Example Compound S9-6, 2-[2-Chloro-3-(trifluoromethyl)phenyl]-N-[(1S)-2,3-dihydro-1H-inden-1-yl]quinoxaline-6-carboxamide] | 0.44 µg/mL (≈ 0.94 µM) | 7.50
COc1c(C(=O)N[C@H]2CCOc3ccccc32)sc2c(-c3cc(Cl)cc(Cl)c3)cccc12 [Example Compound S1-9, 7-(3,5-Dichlorophenyl)-N-[(4S)-3,4-dihydro-2H-chromen-4-yl]-3-methoxy-1-benzothiophene-2-carboxamide] | 0.27 µg/mL (≈ 0.557 µM) | 6.60
O=C(N[C@H]1CCOc2ccccc21)c1ccc2nc(-c3ccccc3Cl)cnc2c1 [Example Compound S9-2, 2-(2-Chlorophenyl)-N-[(4S)-3,4-dihydro-2H-chromen-4-yl]quinoxaline-6-carboxamide] | 1.95 µg/mL (≈ 4.69 µM) | 6.20
CC(C)n1c(C(=O)N[C@H]2CCOc3ccccc32)cc2c(-c3cc(Cl)cc(Cl)c3Cl)cccc21 [Example Compound S2-4, N-[(4S)-3,4-Dihydro-2H-chromen-4-yl]-1-(propan-2-yl)-4-(2,3,5-trichlorophenyl)-1H-indole-2-carboxamide] | 0.02 µg/mL (≈ 0.0389 µM) | 7.80
O=C(N[C@H]1CCOc2ccccc21)c1sc2c(-c3cccc(Cl)c3Cl)ccc(F)c2c1N1CCOCC1 [Example Compound S1-17, 7-(2,3-Dichlorophenyl)-N-[(4S)-3,4-dihydro-2H-chromen-4-yl]-4-fluoro-3-(morpholin-4-yl)-1-benzothiophene-2-carboxamide] | 0.52 µg/mL (≈ 0.933 µM) | 7.30
O=C(N[C@H]1CCOc2ccccc21)c1cnc2c(ccc(=O)n2-c2cc(Cl)cc(Cl)c2)c1 [Example Compound S7-1, 8-(3,5-Dichlorophenyl)-N-[(4S)-3,4-dihydro-2H-chromen-4-yl]-7-oxo-7,8-dihydro-1,8-naphthyridine-3-carboxamide] | 1.95 µg/mL (≈ 4.18 µM) | 6.70
CC(C)c1c(C(=O)N[C@H]2CCc3ccccc32)ccc2c1nnn2-c1cccc(C(F)(F)F)c1 [Example Compound S4-9, N-[(1S)-2,3-Dihydro-1H-inden-1-yl]-4-(propan-2-yl)-1-[3-(trifluoromethyl)phenyl]-1H-benzotriazole-5-carboxamide] | > 2 µg/mL | 5.80
CC(C)c1c(C(=O)N[C@H]2CCc3ccccc32)ccc2c1nnn2-c1ccccc1Cl [Example Compound S4-10, 1-(2-Chlorophenyl)-N-[(1S)-2,3-dihydro-1H-inden-1-yl]-4-(propan-2-yl)-1H-benzotriazole-5-carboxamide] | > 2 µg/mL | 5.50
COc1c(C(=O)N[C@H]2CCOc3ccccc32)sc2c(-c3cccc(Cl)c3Cl)nccc12 [Example Compound S1-16, 7-(2,3-Dichlorophenyl)-N-[(4S)-3,4-dihydro-2H-chromen-4-yl]-3-methoxythieno[2,3-c]pyridine-2-carboxamide] | 0.18 µg/mL (≈ 0.371 µM) | 7.60
CN(C)c1c(C(=O)N[C@H]2CCOc3ccccc32)sc2c(-c3ccc(F)c(F)c3)cccc12 [Example Compound S1-8, 7-(3,4-Difluorophenyl)-N-[(4S)-3,4-dihydro-2H-chromen-4-yl]-3-(dimethylamino)-1-benzothiophene-2-carboxamide] | 0.63 µg/mL (≈ 1.36 µM) | 5.50
O=C(N[C@H]1CCOc2ccccc21)c1ccc2c(-c3cccc(Cl)c3Cl)cccc2c1 [Example Compound S6-1, 5-(2,3-Dichlorophenyl)-N-[(4S)-3,4-dihydro-2H-chromen-4-yl]naphthalene-2-carboxamide] | 0.63 µg/mL (≈ 1.41 µM) | 7.10
CC(C)c1c(C(=O)N[C@H]2CCc3ccccc32)ccc2c1nnn2-c1cccc(Cl)c1 [Example Compound S4-8, 1-(3-Chlorophenyl)-N-[(1S)-2,3-dihydro-1H-inden-1-yl]-4-(propan-2-yl)-1H-benzotriazole-5-carboxamide] | > 2 µg/mL | 5.00
COc1c(C(=O)N[C@H]2CCOc3ccccc32)sc2c(-c3cccc(Cl)c3)cccc12 [Example Compound S1-10, 7-(3-Chlorophenyl)-N-[(4S)-3,4-dihydro-2H-chromen-4-yl]-3-methoxy-1-benzothiophene-2-carboxamide] | 0.37 µg/mL (≈ 0.822 µM) | 6.40
CN(C)c1c(C(=O)N[C@H]2CCOc3ccccc32)cnc2c1cnn2-c1cc(Cl)cc(Cl)c1 [Example Compound S4-4, 1-(3,5-Dichlorophenyl)-N-[(4S)-3,4-dihydro-2H-chromen-4-yl]-4-(dimethylamino)-1H-pyrazolo[3,4-b]pyridine-5-carboxamide] | > 2 µg/mL | 6.30
CC(C)c1c(C(=O)N[C@H]2CCOc3ccccc32)sc2c(-c3cc(Cl)cc(Cl)c3)cccc12 [Example Compound S1-1, 7-(3,5-Dichlorophenyl)-N-[(4S)-3,4-dihydro-2H-chromen-4-yl]-3-isopropyl-1-benzothiophene-2-carboxamide] | 0.08 µg/mL (≈ 0.161 µM) | 8.60
O=C(N[C@H]1CCOc2ccccc21)c1cnc2c(cnn2-c2c(F)cccc2F)c1Cl [Example Compound S4-1, 4-Chloro-1-(2,6-difluorophenyl)-N-[(4S)-3,4-dihydro-2H-chromen-4-yl]-1H-pyrazolo[3,4-b]pyridine-5-carboxamide] | 0.41 µg/mL (≈ 0.93 µM) | 5.95
CN(C)c1c(C(=O)N[C@H]2CCOc3ccccc32)ncc2c1ccc(=O)n2Cc1ccc(Cl)cc1 [Example Compound S7-2, 1-(4-Chlorobenzyl)-N-[(4S)-3,4-dihydro-2H-chromen-4-yl]-5-(dimethylamino)-2-oxo-1,2-dihydro 1,7-naphthyridine-6-carboxamide] | > 2 µg/mL | 6.00
COc1c(C(=O)N[C@H]2CCOc3ccccc32)sc2c(-c3cc(Cl)cc(Cl)c3)nccc12 [Example Compound S1-14, 7-(3,5-Dichlorophenyl)-N-[(4S)-3,4-dihydro-2H-chromen-4-yl]-3-methoxythieno[2,3-c]pyridine-2-carboxamide] | 2 µg/mL (≈ 4.12 µM) | 6.10
O=C(N[C@H]1CCOc2ccccc21)C1=Cc2cccc(-c3cc(Cl)cc(Cl)c3)c2OC1 [Example Compound S8a-4, 8-(3,5-Dichlorophenyl)-N-[(4S)-3,4-dihydro-2H-chromen-4-yl]-2H-chromene-3-carboxamide] | > 2 µg/mL | 7.70
O=C(N[C@H]1CCc2ccccc21)c1ccc2nc(-c3cccc(Cl)c3Cl)cnc2c1 [Example Compound S9-5, 2-(2,3-Dichlorophenyl)-N-[(1S)-2,3-dihydro-1H-inden-1-yl]quinoxaline-6-carboxamide] | 0.37 µg/mL (≈ 0.852 µM) | 7.50
O=C(N[C@H]1CCOc2ccccc21)c1sc2c(-c3cccc(Cl)c3Cl)cccc2c1Cl [Example Compound S1-12, 3-Chloro-7-(2,3-dichlorophenyl)-N-[(4S)-3,4-dihydro-2H-chromen-4-yl]-1-benzothiophene-2-carboxamide] | 0.1 µg/mL (≈ 0.205 µM) | 6.80
CN(C)c1c(C(=O)N[C@H]2CCOc3ccccc32)cnc2c1n(C)c(=O)n2-c1cc(Cl)cc(Cl)c1 [Example Compound S5-1, 3-(3,5-Dichlorophenyl)-N-[(4S)-3,4-dihydro-2H-chromen-4-yl]-7-(dimethylamino)-1-methyl-2-oxo-2,3-dihydro-1H-imidazo[4,5-b]pyridine-6-carboxamide] | 0.38 µg/mL (≈ 0.742 µM) | 7.00
O=C(N[C@H]1CCOc2ccccc21)c1cc2cccc(-c3cccc(Cl)c3Cl)c2oc1=O [Example Compound S8a-3, 8-(2,3-Dichlorophenyl)-N-[(4S)-3,4-dihydro-2H-chromen-4-yl]-2-oxo-2H-chromene-3-carboxamide] | 0.25 µg/mL (≈ 0.536 µM) | 7.30
CN(C)c1c(C(=O)N[C@H]2CCOc3ccccc32)sc2c(-c3cccc(Cl)c3)cccc12 [Example Compound S1-6, 7-(3-Chlorophenyl)-N-[(4S)-3,4-dihydro-2H-chromen-4-yl]-3-(dimethylamino)-1-benzothiophene-2-carboxamide] | 0.25 µg/mL (≈ 0.54 µM) | 7.50
CC(C)n1c(C(=O)N[C@H]2CCOc3ccccc32)cc2c(-c3cccc(Cl)c3Cl)cccc21 [Example Compound S2-7, 4-(2,3-Dichlorophenyl)-N-[(4S)-3,4-dihydro-2H-chromen-4-yl]-1-(propan-2-yl)-1H-indole-2-carboxamide] | 0.01 µg/mL (≈ 0.0209 µM) | 7.70
O=C(N[C@H]1CCOc2ccccc21)c1ccc2nc(-c3cccc(Cl)c3Cl)cnc2c1 [Example Compound S9-4, 2-(2,3-Dichlorophenyl)-N-[(4S)-3,4-dihydro-2H-chromen-4-yl]quinoxaline-6-carboxamide] | 0.32 µg/mL (≈ 0.711 µM) | 7.70

— patent US12435068B2, “Anthelmintic compounds” (Elanco Animal Health GmBh, priority 2018, dated 2025)
